Laboratory results as given in patent publication US7935359B2, “Use of L 2-thiohistidine or one of its derivatives as a depigmenting agent in cosmetics” (LVMH Recherche, priority 2006, dated 2011).

Test system: melanocytes of separated mammary epidermis
Test: Depigmenting activity on separated epidermis incubated with L-DOPA/active principle solution, optical microscopy and counting of melanin grains
Type: cell-based, human
Conditions: for depigmenting activity: separated epidermis, L-DOPA; for grains of melanin counted, Mean: mean of 3 tests
Description: In this Example a quantitative comparative test is carried out on a separated epidermis in order to show the depigmenting activity of L-2-thiohistidine compared with various depigmenting agents known in the prior art, especially kojic acid or ergothioneine, and also compared with a control sample comprising DOPA oxidase.
The procedure of this test is similar to that described in Example II of the LVMH RECHERCHE document FR-A-2,867,384 published on 16 Sep. 2005, to which those skilled in the art may usefully refer and which is incorporated by reference.
Frozen mammary epidermis originating from plastic surgery on a person, reference P148AB39, are separated by incubation in 2N NaBr for 1 h 45 min at 37° C. They were fixed in a formalized fixative, buffered, rinsed and brought into contact with a volume/volume mixture of L-DOPA/active principle solution. After incubation, they were rinsed and mounted between slides and cover slips with mounting medium.
The epidermis were observed by optical microscopy with a magnification of 10.
The depigmenting activity which can be seen in FIGS. 1 to 5 was quantified statistically by counting the grains of melanin over a series of 3 tests. The values are shown in the Table below, in which the values obtained for the Student test are specified for ergothioneine versus L-2-thiohistidine and for kojic acid versus L-2-thiohistidine at the same concentration. The Student test is said to be significant if the value obtained is less than 0.05. Conclusions

SMILES	grains of melanin counted, Test 1 (50 μg)	grains of melanin counted, Test 2 (50 μg)	grains of melanin counted, Test 3 (50 μg)	depigmenting activity (50 μg/ml) [%]	grains of melanin counted, Mean (50 μg)	grains of melanin counted, Test 1 (150 μg)	grains of melanin counted, Test 2 (150 μg)	grains of melanin counted, Test 3 (150 μg)	depigmenting activity compared with reference agents (in words) (150 μg/ml, versus kojic acid)	depigmenting activity (150 μg/ml) [%]	grains of melanin counted, Mean (150 μg)	depigmenting activity compared with reference agents (in words) (comparable concentration, versus ergothioneine)
C[N+](C)(C)[C@@H](Cc1c[nH]c(=S)[nH]1)C(=O)[O-] [ergothioneine, reference compound]	194	210	190	~45	198	–	–	–	–	–	–	–
NC(Cc1c[nH]c(=S)[nH]1)C(=O)O [L-2-thiohistidine, alpha-amino-2,3-dihydro-2-thioxo-1H-imidazole-4-propanoic acid]	162	178	176	60	172	102	115	116	very good depigmenting activity similar to that of the previously known kojic acid	75	111	better depigmenting activity than ergothioneine
O=c1cc(CO)occ1O [kojic acid, reference compound]	–	–	–	–	–	124	137	138	–	~75	133	–
